What was measured:
c-MET = target: T1, c-MET (Homo sapiens, UniProt P08581); assay: Western blot, dose-dependent inhibition of c-MET phosphorylation in KMS34 cells; assay type: cell-based; details: Western blot densitometry, read-out: 50% inhibition of the phosphorylation of c-MET
T1 construct: endogenous in cells; host or cells: KMS34 multiple myeloma cells
Method: (§1) MM cells (4 × 10^5 cells/mL) were incubated with 0–20 μM GTN057 for 12 h. The cells were then co‐cultured with 0–50 ng/mL of hepatocyte growth factor (HGF) (PeproTech, London) or 0–20 ng/mL of fibroblast growth factor (FGF)‐2 (PeproTech) with 1 unit/mL of heparin in RPMI containing 4% dialyzed FCS (Gibco) for the KMS11 and KMS34 cells and 10% dialyzed FCS for the KMS21 cells for 15 min at RT (room temperature). A549 cells were co‐cultured with 0–50 ng/mL of epidermal growth factor (EGF) (PeproTech) in Eagle's MEM containing 4% dialyzed FCS for 15 min at RT. […]
(§2) The protein concentrations were measured using a BCA Protein Assay Kit (Thermo Fisher Scientific). […]
(§3) Antibodies against phospho‐STAT3 (Tyr705), phospho‐Akt (Ser473), p44/42 MAPK (Erk 1/2), phosphor‐p44/42 MAPK (Thr202/Tyr 204), and phospho‐c‐Met (Tyr1234/1235) (all from Cell Signaling Technology, Danvers, MA) or STAT3, Akt, c‐Met, and β‐actin (all from Santa Cruz Biotechnology, Santa Cruz, CA) or phospho‐c‐Met (Tyr1230/1234/1235) (Biosource, Camarillo, CA for KMS34 cells in Figure 3A) were each used at 1:1000 dilution. […] The Western blotting signals were detected by enhanced ECL chemiluminescence (Amersham). The signal intensity of each band was quantified densitometrically with ImageJ software (ver. 1.48, U.S. National Institutes of Health).

[1] = test system: FGF-2 stimulated ERK1/2, STAT3, AKT1 phosphorylation; assay: Western blot, FGF-2-stimulated signaling in KMS11 cells; assay type: cell-based, human; details: KMS11 cells stimulated by FGF-2
Method: as §1, §2, §3

[2] = test system: EGF stimulated ERK1/2, STAT3, AKT1 phosphorylation; assay: Western blot, EGF-stimulated signaling in A549 cells; assay type: cell-based, human; details: EGF stimulation
Method: as §1, §2, §3

[3] = Toxicity assessment in ICR mice; assay type: in vivo
Excerpt: For the toxicity assessment of GTN057 in vivo, we intraperitoneally (i.p.)‐injected male 5‐week‐old ICR mice (CLEA, […]) dissolved in 1% Tween® 80 + 10% DMSO in saline on 2 consecutive days of every 3‐day period for 2 weeks. The mice were weighed every week. Peripheral blood was collected with a heparinized hematocrit tube (Terumo, Tokyo) from the tail vein of each mouse every week and was stained with Türk's solution (Merck). The numbers of leukocytes and neutrophils were counted using light microscopy.

KMM1 cells = assay: Growth inhibition, trypan blue exclusion assay; assay type: cell-based; details: Homo sapiens, KMM-1, KMM1, 48 h
Method: (§4) For the trypan blue exclusion assay, 2 × 10^5 cells/mL of each MM cell line were incubated with various concentrations of GTN057 (0–20 μM). The cells were cultured in triplicate plates, and viable cells were evaluated by a trypan blue exclusion assay (Trypan Blue Stain 0.4%, Gibco) using an automatic cell counter (TC20™, Bio‐Rad).

KMS26 cells = assay: Growth inhibition, trypan blue exclusion assay; assay type: cell-based; details: Homo sapiens, KMS-26, KMS26, 48 h
Method: as §4

KMS11 cells = assay: Growth inhibition, trypan blue exclusion assay; assay type: cell-based; details: Homo sapiens, KMS-11, KMS11, 48 h
Method: as §4

KMS34 cells = assay: Growth inhibition, trypan blue exclusion assay; assay type: cell-based; details: Homo sapiens, KMS-34, KMS34, 48 h
Method: as §4

MUM24 cells = assay: Growth inhibition, trypan blue exclusion assay; assay type: cell-based; details: Homo sapiens, MUM24, 48 h
Method: as §4

KMS27 cells = assay: Growth inhibition, trypan blue exclusion assay; assay type: cell-based; details: Homo sapiens, KMS-27, KMS27, 48 h
Method: as §4

KMS28 cells = assay: Growth inhibition, trypan blue exclusion assay; assay type: cell-based; details: Homo sapiens, KMS28, 48 h
Method: as §4

KMS21 cells = assay: Growth inhibition, trypan blue exclusion assay; assay type: cell-based; details: Homo sapiens, KMS21, 48 h
Method: as §4

[4] = test system: CD138-positive cells obtained from MM patients' bone marrow; assay: Growth inhibition of patient cells, MTT assay; assay type: cell-based; details: Homo sapiens, 48 h
Excerpt: Mononuclear cells were obtained from the bone marrow aspirates of MM patients treated at Tokyo Saiseikai Central Hospital, by centrifugation with Lymphoprep™ (Axis‐Shield). The mononuclear cells were then labeled with CD138 MicroBeads from Miltenyi Biotec (Bergisch Gladbach). The labeled CD138‐positive cells were magnetically purified using MACS Columns (Miltenyi Biotec).
For the 3‐[…] (MTT) assay (Roche Diagnostics), 6 × 10^4 cells/mL of CD138‐positive bone marrow cells were cultured in 96‐well plates in triplicate with various concentrations of GTN057 for 48 h. The cell viability was examined by MTT dye absorbance in accord with the manufacturer's manual. We obtained the IC50 values by drawing approximate straight lines in semilogarithmic growth curves, using Microsoft Excel.

[5] = test system: bone marrow cells from mice; design: method as in PMID 28882484; details: cited from earlier work

T1 sequence (P08581 25-1390): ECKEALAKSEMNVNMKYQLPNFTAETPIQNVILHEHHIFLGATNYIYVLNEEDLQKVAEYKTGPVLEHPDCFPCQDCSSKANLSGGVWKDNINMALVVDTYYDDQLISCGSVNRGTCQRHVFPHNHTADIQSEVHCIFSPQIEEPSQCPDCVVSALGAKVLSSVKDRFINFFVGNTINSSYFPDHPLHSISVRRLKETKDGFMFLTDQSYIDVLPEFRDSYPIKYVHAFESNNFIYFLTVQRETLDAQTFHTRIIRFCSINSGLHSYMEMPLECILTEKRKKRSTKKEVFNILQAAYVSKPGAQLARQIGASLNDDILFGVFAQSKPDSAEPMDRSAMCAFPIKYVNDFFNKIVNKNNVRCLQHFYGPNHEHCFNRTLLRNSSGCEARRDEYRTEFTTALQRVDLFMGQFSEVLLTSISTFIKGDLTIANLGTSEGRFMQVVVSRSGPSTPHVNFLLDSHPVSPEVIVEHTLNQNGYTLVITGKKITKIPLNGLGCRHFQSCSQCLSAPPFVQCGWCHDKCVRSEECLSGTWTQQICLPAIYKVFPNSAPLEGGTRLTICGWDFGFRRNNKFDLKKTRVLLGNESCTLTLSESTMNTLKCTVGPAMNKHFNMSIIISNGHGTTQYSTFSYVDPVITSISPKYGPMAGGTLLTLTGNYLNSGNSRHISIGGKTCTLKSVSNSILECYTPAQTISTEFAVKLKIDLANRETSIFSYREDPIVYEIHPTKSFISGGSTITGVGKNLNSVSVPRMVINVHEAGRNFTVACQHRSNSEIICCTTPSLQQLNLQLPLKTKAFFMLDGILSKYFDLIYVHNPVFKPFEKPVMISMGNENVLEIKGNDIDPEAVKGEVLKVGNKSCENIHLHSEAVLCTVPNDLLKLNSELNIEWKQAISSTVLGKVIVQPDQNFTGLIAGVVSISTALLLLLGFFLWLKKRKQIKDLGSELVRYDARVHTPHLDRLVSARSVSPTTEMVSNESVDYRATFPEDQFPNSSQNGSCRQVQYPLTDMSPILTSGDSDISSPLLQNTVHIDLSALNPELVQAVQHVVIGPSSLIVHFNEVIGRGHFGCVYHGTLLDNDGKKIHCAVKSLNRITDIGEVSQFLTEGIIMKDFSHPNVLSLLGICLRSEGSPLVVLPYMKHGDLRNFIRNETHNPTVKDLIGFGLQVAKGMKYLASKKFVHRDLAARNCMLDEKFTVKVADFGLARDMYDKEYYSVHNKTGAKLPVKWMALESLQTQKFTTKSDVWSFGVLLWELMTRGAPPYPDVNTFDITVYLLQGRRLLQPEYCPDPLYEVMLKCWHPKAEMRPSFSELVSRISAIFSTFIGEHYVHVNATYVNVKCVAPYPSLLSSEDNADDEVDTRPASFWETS

COc1c(OC(C)=O)c2c(c(O)c1C(C)C)C(=O)CC1C(C)(C)CCC[C@]1(O)C2 (some centres unmarked) [GTN057]
IC50 (c-MET): 35.9 µM | ERK1/2, STAT3, AKT1 phosphorylation levels [1]: did not clearly change | ERK1/2, STAT3, AKT1 phosphorylation levels [2]: not altered | Neutropenia and systemic toxicity ([3]; 100 mg/kg, 2 days of each 3-day period over 2 weeks, mice): no significant neutropenia or systemic toxicity | Body weight and leukocyte count ([3]; 40 or 100 mg/kg i.p., 2 consecutive days of each 3-day period for 2 weeks, ICR mice): neither a loss of body weight nor leukocytopenia | Maximal tolerated dose ([3]; i.p., 2 days of every 3-day period, mice): ≥ 100 mg/kg | IC50 (KMM1 cells): 20.5 µM | IC50 (KMS26 cells): 9.91 µM | IC50 (KMS11 cells): 11.2 µM | IC50 (KMS34 cells): 20.1 µM | IC50 (MUM24 cells): 5.29 µM | IC50 (KMS27 cells): 7.93 µM | IC50 (KMS28 cells): 24 µM | IC50 (KMS21 cells): 10.1 µM | IC50 ([4]; Patient 1 CD138+ cells): 12.1 µM | IC50 ([4]; Patient 2 CD138+ cells): 16.3 µM | IC50 ([4]; Patient 3 CD138+ cells): 26.3 µM | IC50 ([4]; Patient 4 CD138+ cells): 18.7 µM | Colony formation of bone marrow cells ([5]; bone marrow cells from mice): did not inhibit the colony formation | Hematological toxicity in vitro ([5]; colony assay): negligible hematological toxicity

Reference: article PMC10166914, “GTN057, a komaroviquinone derivative, induced myeloma cells' death in vivo and inhibited c‐MET tyrosine kinase” (Cancer Medicine, 2023)
